According to ChEMBL document CHEMBL1201862, “PubChem BioAssay data set” (2004):
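Exposure lasted 48 hours, with cells grown in 96-well plates and compounds tested at five concentrations. GI50: concentration for 50% inhibition of growth.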 The source made the active and inactive calls. Cut-off read from the data, not from the text of the source: active = GI50 up to about 1.1 µM and inactive = higher.

Legend:
Assay in all cases: DTP human tumour cell line panel, 48 h
786-0 = tested on: 786-0
COLO 205 = tested on: COLO 205
UACC-257 = tested on: UACC-257
OVCAR-8 = tested on: OVCAR-8
NCI/ADR-RES = tested on: NCI/ADR-RES
SK-OV-3 = tested on: SK-OV-3
NCI-H226 = tested on: NCI-H226
A498 = tested on: A498
PC-3 = tested on: PC-3
SK-MEL-28 = tested on: SK-MEL-28
NCI-H23 = tested on: NCI-H23
SK-MEL-5 = tested on: SK-MEL-5
NCI-H522 = tested on: NCI-H522
U-251 = tested on: U-251
IGROV-1 = tested on: IGROV-1
HT-29 = tested on: HT-29
CAKI-1 = tested on: CAKI-1
SW-620 = tested on: SW-620
NCI-H460 = tested on: NCI-H460
UO-31 = tested on: UO-31

Structure (SMILES): OC(CC(CC(O)(C(F)(F)Cl)C(F)(F)Cl)=NNc1ccccc1)(C(F)(F)Cl)C(F)(F)Cl
- GI50 (786-0): 4.54 µM (inactive)
- GI50 (COLO 205): 1.91 µM (inactive)
- GI50 (UACC-257): 1.88 µM (inactive)
- GI50 (OVCAR-8): 2.9 µM (inactive)
- GI50 (NCI/ADR-RES): 4.05 µM (inactive)
- GI50 (SK-OV-3): 4.04 µM (inactive)
- GI50 (NCI-H226): 2.99 µM (inactive)
- GI50 (A498): 2.54 µM (inactive)
- GI50 (PC-3): 1.35 µM (inactive)
- GI50 (SK-MEL-28): 2.92 µM (inactive)
- GI50 (NCI-H23): 2.41 µM (inactive)
- GI50 (SK-MEL-5): 1.71 µM (inactive)
- GI50 (NCI-H522): 4.4 µM (inactive)
- GI50 (U-251): 3.3 µM (inactive)
- GI50 (IGROV-1): 5.62 µM (inactive)
- GI50 (HT-29): 3.06 µM (inactive)
- GI50 (CAKI-1): 2.9 µM (inactive)
- GI50 (SW-620): 3.27 µM (inactive)
- GI50 (NCI-H460): 3.04 µM (inactive)

Structure (SMILES): CC12CC(C#N)(C#N)C(C#N)(CO1)C(=N)O2 (configuration not stated)
- GI50 (786-0): > 100 µM (inactive)
- GI50 (COLO 205): 37.8 µM (inactive)
- GI50 (UACC-257): > 100 µM (inactive)
- GI50 (OVCAR-8): > 100 µM (inactive)
- GI50 (NCI/ADR-RES): 71.1 µM (inactive)
- GI50 (SK-OV-3): > 100 µM (inactive)
- GI50 (NCI-H226): > 100 µM (inactive)
- GI50 (A498): > 100 µM (inactive)
- GI50 (PC-3): > 100 µM (inactive)
- GI50 (SK-MEL-28): > 100 µM (inactive)
- GI50 (NCI-H23): > 100 µM (inactive)
- GI50 (SK-MEL-5): > 100 µM (inactive)
- GI50 (U-251): > 100 µM (inactive)
- GI50 (UO-31): > 100 µM (inactive)
- GI50 (IGROV-1): > 100 µM (inactive)
- GI50 (HT-29): 69.2 µM (inactive)
- GI50 (CAKI-1): 31.8 µM (inactive)
- GI50 (SW-620): 53.6 µM (inactive)
- GI50 (NCI-H460): 63.7 µM (inactive)

Structure (SMILES): CO/C(N)=C(C#N)/N=C/c1ccc2ccccc2c1
- GI50 (786-0): 78.5 µM (inactive)
- GI50 (COLO 205): 17.9 µM (inactive)
- GI50 (UACC-257): 7.52 µM (inactive)
- GI50 (OVCAR-8): 72.3 µM (inactive)
- GI50 (NCI/ADR-RES): 13 µM (inactive)
- GI50 (SK-OV-3): 82.6 µM (inactive)
- GI50 (NCI-H226): > 100 µM (inactive)
- GI50 (A498): 33 µM (inactive)
- GI50 (PC-3): 19.9 µM (inactive)
- GI50 (SK-MEL-28): > 100 µM (inactive)
- GI50 (NCI-H23): > 100 µM (inactive)
- GI50 (SK-MEL-5): 13 µM (inactive)
- GI50 (NCI-H522): > 100 µM (inactive)
- GI50 (U-251): 30.8 µM (inactive)
- GI50 (UO-31): 58.2 µM (inactive)
- GI50 (IGROV-1): 43.6 µM (inactive)
- GI50 (HT-29): 18.5 µM (inactive)
- GI50 (CAKI-1): 39.1 µM (inactive)
- GI50 (SW-620): > 100 µM (inactive)

Structure (SMILES): O=C(Oc1ccccc1)N1c2ccccc2[C@@]23O[C@]24CCC[C@H]3C#C/C=C\C#C[C@H]14
- GI50 (786-0): 10.5 µM (inactive)
- GI50 (COLO 205): 14.8 µM (inactive)
- GI50 (UACC-257): 14.9 µM (inactive)
- GI50 (OVCAR-8): 11.9 µM (inactive)
- GI50 (NCI/ADR-RES): 14.4 µM (inactive)
- GI50 (SK-OV-3): 0.173 µM (active)
- GI50 (NCI-H226): 17.4 µM (inactive)
- GI50 (A498): 14.3 µM (inactive)
- GI50 (PC-3): 11.6 µM (inactive)
- GI50 (SK-MEL-28): 14 µM (inactive)
- GI50 (NCI-H23): 11.1 µM (inactive)
- GI50 (U-251): 16.7 µM (inactive)
- GI50 (UO-31): 13.7 µM (inactive)
- GI50 (IGROV-1): 12.4 µM (inactive)
- GI50 (HT-29): 11.2 µM (inactive)
- GI50 (CAKI-1): 13 µM (inactive)
- GI50 (SW-620): 11.4 µM (inactive)
- GI50 (NCI-H460): < 0.01 µM (active)

Structure (SMILES): CN(C)c1ccc(C(C#N)N2CCCN(C(C#N)c3ccc(N(C)C)cc3)C2c2ccc(N(C)C)cc2)cc1 (configuration not stated)
- GI50 (786-0): > 100 µM (inactive)
- GI50 (COLO 205): > 100 µM (inactive)
- GI50 (UACC-257): > 100 µM (inactive)
- GI50 (OVCAR-8): > 100 µM (inactive)
- GI50 (NCI/ADR-RES): > 100 µM (inactive)
- GI50 (SK-OV-3): > 100 µM (inactive)
- GI50 (NCI-H226): > 100 µM (inactive)
- GI50 (A498): > 100 µM (inactive)
- GI50 (PC-3): > 100 µM (inactive)
- GI50 (SK-MEL-28): > 100 µM (inactive)
- GI50 (NCI-H23): > 100 µM (inactive)
- GI50 (SK-MEL-5): > 100 µM (inactive)
- GI50 (NCI-H522): > 100 µM (inactive)
- GI50 (U-251): > 100 µM (inactive)
- GI50 (UO-31): > 100 µM (inactive)
- GI50 (IGROV-1): > 100 µM (inactive)
- GI50 (HT-29): > 100 µM (inactive)
- GI50 (CAKI-1): > 100 µM (inactive)
- GI50 (SW-620): > 100 µM (inactive)

Structure (SMILES): CN(C)CCNc1ncnc2nc(-c3ccccc3)c(-c3ccccc3)nc12
- GI50 (786-0): > 100 µM (inactive)
- GI50 (COLO 205): > 100 µM (inactive)
- GI50 (UACC-257): > 100 µM (inactive)
- GI50 (OVCAR-8): > 100 µM (inactive)
- GI50 (NCI/ADR-RES): > 100 µM (inactive)
- GI50 (SK-OV-3): > 100 µM (inactive)
- GI50 (NCI-H226): > 100 µM (inactive)
- GI50 (A498): > 100 µM (inactive)
- GI50 (PC-3): > 100 µM (inactive)
- GI50 (SK-MEL-28): > 100 µM (inactive)
- GI50 (NCI-H23): > 100 µM (inactive)
- GI50 (SK-MEL-5): > 100 µM (inactive)
- GI50 (NCI-H522): > 100 µM (inactive)
- GI50 (U-251): > 100 µM (inactive)
- GI50 (UO-31): > 100 µM (inactive)
- GI50 (IGROV-1): > 100 µM (inactive)
- GI50 (HT-29): > 100 µM (inactive)
- GI50 (CAKI-1): > 100 µM (inactive)
- GI50 (SW-620): > 100 µM (inactive)

Structure (SMILES): COc1ccc(/C=C(\C(=O)OCC(C)C)c2ccc(OC)c(OC)c2)cc1OC
- GI50 (786-0): > 100 µM (inactive)
- GI50 (COLO 205): 38.4 µM (inactive)
- GI50 (UACC-257): > 100 µM (inactive)
- GI50 (OVCAR-8): > 100 µM (inactive)
- GI50 (NCI/ADR-RES): > 100 µM (inactive)
- GI50 (NCI-H226): > 100 µM (inactive)
- GI50 (A498): > 100 µM (inactive)
- GI50 (PC-3): > 100 µM (inactive)
- GI50 (SK-MEL-28): > 100 µM (inactive)
- GI50 (NCI-H23): > 100 µM (inactive)
- GI50 (SK-MEL-5): > 100 µM (inactive)
- GI50 (NCI-H522): > 100 µM (inactive)
- GI50 (U-251): 56.2 µM (inactive)
- GI50 (UO-31): > 100 µM (inactive)
- GI50 (IGROV-1): > 100 µM (inactive)
- GI50 (HT-29): > 100 µM (inactive)
- GI50 (CAKI-1): > 100 µM (inactive)
- GI50 (SW-620): > 100 µM (inactive)
- GI50 (NCI-H460): > 100 µM (inactive)
